Results published in PubChem BioAssay (NCI).
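1) Cells in 96-well plates. 2) Compound, 48 h, 5 concentrations. 3) Linear interpolation between surrounding doses. 4) Unreached endpoint = highest concentration. Here, GI50 denotes the concentration required for 50% inhibition of growth. TGI: total growth inhibition.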

system: SW-620 colon; assay: NCI tumour cell line growth inhibition, 48 h

Compound	GI50 [µM]	TGI [µM]
O=C(/C=C/c1ccc(F)cc1)c1ccc(Cl)cc1Cl	29.7	79.2

system: HOP-62 NSCLC; assay: NCI tumour cell line growth inhibition, 48 h

Compound	TGI [µM]	GI50 [µM]
N=c1oc2ccc([N+](=O)[O-])cc2cc1C(=O)NCc1ccccc1	> 100	
COc1cc(C(=O)/C(C)=C/c2c[nH]c3ccccc23)cc(OC)c1OC	11.9	0.00541
CC(C)=CCCC(C)c1ccc(C)c2c1OCN(CC1CCNCC1)C2 (stereo not drawn)	28.7	14.8
COc1ccc(N2C(=O)CC(Cl)C2=O)cc1 (stereo not drawn)	> 100	
O=C(/C=C/c1ccc(F)cc1)c1ccc(Cl)cc1Cl	> 100	> 100

system: TK-10 renal; assay: NCI tumour cell line growth inhibition, 48 h

Compound	TGI [µM]	GI50 [µM]
N=c1oc2ccc([N+](=O)[O-])cc2cc1C(=O)NCc1ccccc1	99.4	
COc1cc(C(=O)/C(C)=C/c2c[nH]c3ccccc23)cc(OC)c1OC	12.4	
CC(C)=CCCC(C)c1ccc(C)c2c1OCN(CC1CCNCC1)C2 (stereo not drawn)	29.3	14.4
COc1ccc(N2C(=O)CC(Cl)C2=O)cc1 (stereo not drawn)	32.9	
O=C(/C=C/c1ccc(F)cc1)c1ccc(Cl)cc1Cl	> 100	86.8

system: SF-295 CNS; assay: NCI tumour cell line growth inhibition, 48 h

Compound	TGI [µM]	GI50 [µM]
N=c1oc2ccc([N+](=O)[O-])cc2cc1C(=O)NCc1ccccc1	> 100	
COc1cc(C(=O)/C(C)=C/c2c[nH]c3ccccc23)cc(OC)c1OC	1.61	0.00298
CC(C)=CCCC(C)c1ccc(C)c2c1OCN(CC1CCNCC1)C2 (stereo not drawn)	34.9	15.9
O=C(/C=C/c1ccc(F)cc1)c1ccc(Cl)cc1Cl	> 100	77.3

system: SK-MEL-2 melanoma; assay: NCI tumour cell line growth inhibition, 48 h

Compound	TGI [µM]	GI50 [µM]
N=c1oc2ccc([N+](=O)[O-])cc2cc1C(=O)NCc1ccccc1	39.1	
COc1cc(C(=O)/C(C)=C/c2c[nH]c3ccccc23)cc(OC)c1OC	15.2	0.0123
CC(C)=CCCC(C)c1ccc(C)c2c1OCN(CC1CCNCC1)C2 (stereo not drawn)	35.5	18.2
COc1ccc(N2C(=O)CC(Cl)C2=O)cc1 (stereo not drawn)	> 100	
O=C(/C=C/c1ccc(F)cc1)c1ccc(Cl)cc1Cl	> 100	> 100

system: MALME-3M melanoma; assay: NCI tumour cell line growth inhibition, 48 h

Compound	TGI [µM]	GI50 [µM]
N=c1oc2ccc([N+](=O)[O-])cc2cc1C(=O)NCc1ccccc1	26.7	
COc1cc(C(=O)/C(C)=C/c2c[nH]c3ccccc23)cc(OC)c1OC	> 100	14.2
CC(C)=CCCC(C)c1ccc(C)c2c1OCN(CC1CCNCC1)C2 (stereo not drawn)	35.3	17.7
COc1ccc(N2C(=O)CC(Cl)C2=O)cc1 (stereo not drawn)	32.8	
O=C(/C=C/c1ccc(F)cc1)c1ccc(Cl)cc1Cl	> 100	> 100

system: 786-0 renal; assay: NCI tumour cell line growth inhibition, 48 h

Compound	TGI [µM]	GI50 [µM]
N=c1oc2ccc([N+](=O)[O-])cc2cc1C(=O)NCc1ccccc1	40	
COc1cc(C(=O)/C(C)=C/c2c[nH]c3ccccc23)cc(OC)c1OC	> 100	0.00639
CC(C)=CCCC(C)c1ccc(C)c2c1OCN(CC1CCNCC1)C2 (stereo not drawn)	26.3	12.2
COc1ccc(N2C(=O)CC(Cl)C2=O)cc1 (stereo not drawn)	32	
O=C(/C=C/c1ccc(F)cc1)c1ccc(Cl)cc1Cl	> 100	45.2

system: HCC-2998 colon; assay: NCI tumour cell line growth inhibition, 48 h

Compound	TGI [µM]	GI50 [µM]
N=c1oc2ccc([N+](=O)[O-])cc2cc1C(=O)NCc1ccccc1	> 100	
COc1cc(C(=O)/C(C)=C/c2c[nH]c3ccccc23)cc(OC)c1OC	> 100	0.0043
CC(C)=CCCC(C)c1ccc(C)c2c1OCN(CC1CCNCC1)C2 (stereo not drawn)	12.3	3.74
COc1ccc(N2C(=O)CC(Cl)C2=O)cc1 (stereo not drawn)	50.6	
O=C(/C=C/c1ccc(F)cc1)c1ccc(Cl)cc1Cl	> 100	52.7

system: U251 CNS; assay: NCI tumour cell line growth inhibition, 48 h

Compound	TGI [µM]	GI50 [µM]
N=c1oc2ccc([N+](=O)[O-])cc2cc1C(=O)NCc1ccccc1	83	
COc1cc(C(=O)/C(C)=C/c2c[nH]c3ccccc23)cc(OC)c1OC	10.6	0.00436
CC(C)=CCCC(C)c1ccc(C)c2c1OCN(CC1CCNCC1)C2 (stereo not drawn)	7.61	2.75
COc1ccc(N2C(=O)CC(Cl)C2=O)cc1 (stereo not drawn)	> 100	
O=C(/C=C/c1ccc(F)cc1)c1ccc(Cl)cc1Cl	> 100	44.6

system: OVCAR-8 ovarian; assay: NCI tumour cell line growth inhibition, 48 h

Compound	TGI [µM]	GI50 [µM]
N=c1oc2ccc([N+](=O)[O-])cc2cc1C(=O)NCc1ccccc1	33.2	
COc1cc(C(=O)/C(C)=C/c2c[nH]c3ccccc23)cc(OC)c1OC	82.4	0.00358
CC(C)=CCCC(C)c1ccc(C)c2c1OCN(CC1CCNCC1)C2 (stereo not drawn)	34.5	18.4
COc1ccc(N2C(=O)CC(Cl)C2=O)cc1 (stereo not drawn)	30.2	
O=C(/C=C/c1ccc(F)cc1)c1ccc(Cl)cc1Cl	> 100	33.7

system: A498 renal; assay: NCI tumour cell line growth inhibition, 48 h

Compound	GI50 [µM]	TGI [µM]
COc1cc(C(=O)/C(C)=C/c2c[nH]c3ccccc23)cc(OC)c1OC	0.0025	0.00916
CC(C)=CCCC(C)c1ccc(C)c2c1OCN(CC1CCNCC1)C2 (stereo not drawn)	12.3	26
COc1ccc(N2C(=O)CC(Cl)C2=O)cc1 (stereo not drawn)		> 100
O=C(/C=C/c1ccc(F)cc1)c1ccc(Cl)cc1Cl	> 100	> 100

system: LOX IMVI melanoma; assay: NCI tumour cell line growth inhibition, 48 h

Compound	TGI [µM]	GI50 [µM]
N=c1oc2ccc([N+](=O)[O-])cc2cc1C(=O)NCc1ccccc1	32.2	
COc1cc(C(=O)/C(C)=C/c2c[nH]c3ccccc23)cc(OC)c1OC	11.5	0.00468
CC(C)=CCCC(C)c1ccc(C)c2c1OCN(CC1CCNCC1)C2 (stereo not drawn)	20.2	5.87
COc1ccc(N2C(=O)CC(Cl)C2=O)cc1 (stereo not drawn)	58.9	
O=C(/C=C/c1ccc(F)cc1)c1ccc(Cl)cc1Cl	> 100	41.1

system: HCT-15 colon; assay: NCI tumour cell line growth inhibition, 48 h

Compound	TGI [µM]	GI50 [µM]
N=c1oc2ccc([N+](=O)[O-])cc2cc1C(=O)NCc1ccccc1	33.5	
COc1cc(C(=O)/C(C)=C/c2c[nH]c3ccccc23)cc(OC)c1OC	> 100	0.0034
CC(C)=CCCC(C)c1ccc(C)c2c1OCN(CC1CCNCC1)C2 (stereo not drawn)	21.1	6.51
COc1ccc(N2C(=O)CC(Cl)C2=O)cc1 (stereo not drawn)	33.2	
O=C(/C=C/c1ccc(F)cc1)c1ccc(Cl)cc1Cl	> 100	43.8

system: SF-539 CNS; assay: NCI tumour cell line growth inhibition, 48 h

Compound	TGI [µM]	GI50 [µM]
N=c1oc2ccc([N+](=O)[O-])cc2cc1C(=O)NCc1ccccc1	33.3	
COc1cc(C(=O)/C(C)=C/c2c[nH]c3ccccc23)cc(OC)c1OC	0.0129	0.0028
CC(C)=CCCC(C)c1ccc(C)c2c1OCN(CC1CCNCC1)C2 (stereo not drawn)	27.5	13.7
COc1ccc(N2C(=O)CC(Cl)C2=O)cc1 (stereo not drawn)	32.5	
O=C(/C=C/c1ccc(F)cc1)c1ccc(Cl)cc1Cl	> 100	> 100

system: OVCAR-5 ovarian; assay: NCI tumour cell line growth inhibition, 48 h

Compound	TGI [µM]	GI50 [µM]
N=c1oc2ccc([N+](=O)[O-])cc2cc1C(=O)NCc1ccccc1	96	
COc1cc(C(=O)/C(C)=C/c2c[nH]c3ccccc23)cc(OC)c1OC	> 100	0.0842
CC(C)=CCCC(C)c1ccc(C)c2c1OCN(CC1CCNCC1)C2 (stereo not drawn)	28.8	14.3
